Consider four molecules from patent US6297024A, “Methods for assessing complement activation” (Cell Activation, Inc., priority 1999, dated 2001).

Molecules are shown by their SMILES. Entries after “also recorded” stand apart in the source; their conditions may differ.

Assay [1] has as its system in vitro complement activation (C3 and C4 conversion; MASP-2). Nature of the assay: in vitro complement activation (C3a and C4a by RIA) in blood or plasma of normal donors. To be noted: for MASP activity: inferred from C4a generation in EDTA blood (FIG. 2); for C4 conversion in blood, additive combined with EDTA: additive plus EDTA, 60 min at rt (FIG. 2); for C4 conversion (C4a generation) in whole blood / C3a generation in whole blood: no EDTA; for C4 conversion (C4a generation) in whole blood: over 60 min at rt (FIG. 2); for C3a generation in whole blood: 0.15 mM Benzamidine, 20 μM Trasylol or 0.1 mg/ml Futhan, 0 time vs 60 min at rt (FIG. 2). It is filed as biochemical, human. The procedure:
(§1) Blood samples were either drawn into EDTA tubes (Venoject, Terumo Corp. Elkston, Md.) or Futhan/EDTA tubes (Venoject, Terumo Europe, Leuven, Belgium). The plasma was collected immediately by centrifugation at 2000 g for 15 min. at 4° C. unless otherwise indicated. The plasma samples were either processed immediately for analysis or snap frozen in liquid nitrogen and stored at -70° C. Frozen samples were thawed at 4° C. and processed as described in the text.
(§2) Equal volumes of the plasma sample and the precipitating reagent supplied in the Biotrak RIA kits were mixed by thorough agitation and incubated at rt. for 5 min. The mixture was then centrifuged at 2500 g for 15 min. at 4° C. The supernatant from each sample tube was collected for analysis in the RIA assay. A 50 μl aliquot of the original or diluted supernatant was mixed with 50 μl of the Biotrak assay buffer in a 12×75 mm polypropylene tube. The I^125 labeled C3a or C4a and the specific antibody solutions (50 μl each from the kit) were added and incubated at rt. for 30 min. (for antibody to C3a, C4a, C5a and des Arg derivatives thereof, see Hugli et al. (1975) J. Biol. Chem. 250:1472-1478; Hugli (1975) J. Biol. Chem. 250:8293; and Hugli et al. (1981) J. Biol. Chem. 256:2685-2692). A 50 μl aliquot of the second antibody (goat anti-rabbit) was added to the tube and the mixture incubated for an additional 30 min. at rt. Two ml of isotonic saline was added and the tube was centrifuged at 2000 g for 10 min. at 4° C. to pellet the antigen-antibody complexes. The supernatant in the tubes was decanted and the tubes were counted for 1 min. in a Cobra Auto-gamma Model 5002 (Packard Instrument Co., Meriden, Conn.) scintillation counter. Analysis of each sample was performed in duplicate. Data was analyzed using RiaSmart software supplied by Packard Instruments and installed in the Cobra Auto-gamma counter.
Blood from a normal donor was drawn into EDTA and 0 to 0.2 mg/ml Futhan was added over time indicated. Plasma was recovered within 30 min. of being drawn and a precipitating agent was added to the 0 time plasma sample (EDTA/p10) to prevent further C-activation. An EDTA/Futhan plasma sample (EDTA/p1) and an EDTA/Futhan blood sample (EDTA/b1) were stored for 1 hr. at 22° C. A separate set of EDTA/Futhan plasma samples were either stored at 4° C. for 24 hr (EDTA/p4) or frozen at -70° C. for 24 hr (EDTA/pF) and then thawed for analysis. C3a and C4a levels were determined using a radioimmunoassay procedure.
Whole blood from a normal donor was drawn into 0.15 mM benzamidine, 20 μM Trasylol or 0.1 mg/ml Futhan and processed either immediately (0 time) or after 60 min. at rt, and then analyzed for C3a and C4a.
In this experiment, whole EDTA (0.5 mg/ml) blood from a normal donor was incubated at 4° C. with and without 0.1 mg/ml Futhan added. The C3a and C4a levels were determined versus time over 23-hr.
Complement activation in EDTA plasma was compared with activation in EDTA/Futhan plasma at room temperature (22-24° C.) over a period of one hour (experiment 3A). […] All blood samples were drawn into EDTA, with and without 0.1 mg/ml Futhan present, and the plasma was collected (see Materials and Methods) and frozen at -70° C. These samples were thawed at 4° C. and analyzed after 0 and 60 min. at rt.

The test system is the same in assay [2]. Nature of the assay: in vitro complement activation (C3a and C4a by RIA) in plasma of liver transplant patients. The class given is biochemical, human. The procedure: Blood from nineteen liver transplant patients was collected in 0.1 mg/ml Futhan and 0.5 mg/ml EDTA. The C3a and C4a levels were measured at 0 time and after 1 hr at room temperature. These samples were obtained during routine visits by the patients having no signs of acute rejection episodes.
Blood samples of 5-10 ml were drawn from normal donors, liver transplant and SLE (lupus) patients under an approved Human Subjects protocol #96-293 and all individuals were asked to sign an informed consent form agreeing to be voluntary donors. Normal donors were a random group of male and female individuals between the ages of 27-48. Liver transplant patients were selected from a group of patients being routinely followed at The Scripps Clinic Foundation by Dr. John Brems. None of these organ transplant patients were experiencing acute rejection episodes at the time that the blood was drawn.
as §1, §2
C3a and C4a generation was examined in EDTA plasma of liver transplant patients (average values, n=19) with and without […] Futhan present. These subjects were stable transplant patients not undergoing a clinically detectable rejection episode.

The test system of a further assay is Hageman factor. The conditions noted are these: Hitomi et al. (1985); cited from earlier work.
The next assay concerns Factor Xa. The conditions noted are these: Hitomi et al. (1985); cited from earlier work.
Assay [3] relates to acute rejection episode in liver transplant patients. Nature of the assay: treatment of rejection episodes in liver transplant patients. The class given is in vivo, human. To be noted: two 1 g (I.V.) doses. The source says:
Blood and urine samples were collected over a period of two years from 63 liver transplant patients during routine post-operative clinical visits. The patients' identities were concealed and no selection process or attempt was made to recruit patients for any other reason than that they had undergone orthotopic liver transplantation at The Scripps Clinic and Research Foundation. Immunosuppression was initiated with a regimen of cyclosporine A (CsA), azathioprine and steroids. Treatment for some of these patients was switched to FK506, but none was treated with OKT3. Patients were seen weekly in the outpatient transplant clinic after transplantation until their liver function tests stabilized. […] Measurement of the relevant clinical parameters was obtained during each visit. Liver biopsies were obtained whenever there was an abnormality in liver function tests.

Setting [4] is: normal donor, listed as benzamidine.
Where [5] appears, read: n=20, stored at 4° C. for 24 hours.
Where [6] appears, read: normal plasma, n = 20, processed immediately at rt, total data set.
The mark [7] stands for this setting: normal plasma, processed immediately at rt, values outside ± 2σ eliminated.
The mark [8] stands for this setting: Table III samples, plasma processed immediately.

As to `N=C(N)c1ccccc1` [Benzamidine, benzamidine], the MASP activity entry in assay [1] was “does not inhibit MASP activity”. Besides, in assay [1] (normal donor), the “C4 conversion in blood, additive combined with EDTA” value (“C4 conversion in blood” below) was “extensive conversion of C4 occurred”; the “C4 conversion (C4a generation) in whole blood” value is on record as “relatively effective in preventing C4 conversion”; the “C3a generation in whole blood” value is “failed to prevent C3a generation”. In assay [1] (setting [4]), the “C4 conversion in blood” value is listed as “high levels of C4a are generated” and the “C4 conversion (C4a generation) in whole blood” value is “no C4a generated in whole blood”.

With `O=C(O)CN(CCN(CC(=O)O)CC(=O)O)CC(=O)O` [EDTA, ethylenediaminetetraacetic acid], the “activity of the Lectin Pathway in EDTA plasma” value in assay [1] (Table II, line III) is given as “IN VITRO”. Moreover, the “C4a elevation over 60 min in normal plasma” value in assay [1] (n=11, average, rt) was 3-4 fold. Also, the “C4a level in normal plasma at 0 time” value in assay [1] (n=11, frozen at -70° C., thawed at 4° C., 0 min at rt (experiment 3A)) was 242 ± 95 ng/mL. For the same molecule, in assay [1] (n=11, frozen at -70° C., thawed at 4° C., 60 min at rt (experiment 3A)), the “C4a level in normal plasma after 60 min” value was 768 ± 392 ng/mL. Further, in assay [1] (setting [5]), the “C3a values in normal plasma” value worked out at 0.60 ± 0.026 µg/mL and the “C4a levels in normal plasma” value came out at 0.32 ± 0.017 µg/mL. Further, in assay [1] (normal donor, EDTA 0.5 mg/ml, after 23 hr), the “C4a level in whole blood at 4° C., end” value is listed as “more than 1700 ng/ml”. The “C4a level in whole blood at 4° C., start” value in assay [1] (normal donor, EDTA 0.5 mg/ml, start of 23-hr period) was found to be 300 ng/mL. In addition, in assay [1] (normal plasma, n = 20, EDTA 1 mg/ml or Futhan 0.2 mg/ml and EDTA, processed immediately at rt, total data set), the “C3a, mean ± standard deviation, data set I” value was determined as 599 ± 263 ng/mL. Also, in assay [1] (setting [6]), the “C3a, range of values, data set I” value was in the range of 349 to 1344 ng/mL; the “C4a, mean ± standard deviation, data set I” value stood at 316 ± 169 ng/mL; the “C4a, range of values, data set I” value is 130 to 774 ng/mL. For the same molecule, in assay [1] (setting [7]), the “C3a, mean ± standard deviation, data set II” value turned out to be 484 ± 110 ng/mL; the “C3a, range of values, data set II” value was in the range of 349 to 722 ng/mL; the “C4a, mean ± standard deviation, data set II” value is 268 ± 95 ng/mL; the “C4a, range of values, data set II” value lay in the range of 130 to 433 ng/mL. Also, in assay [1] (normal whole blood (FIG. 2)), the “C3 conversion when EDTA was added to the blood” value is listed as “virtually no C3 was converted” and the “C4 conversion when EDTA was added to the blood” value is reported as “remarkable increase in C4 conversion”. For the same molecule, in assay [1] (over 23 hr), the “C3a levels in whole blood at 4° C. versus time, relative to Futhan/EDTA blood” value was “only slightly higher”. The “C3a generation in normal blood at 4° C.” value in assay [1] (over a 27-hr period) is “sufficient to prevent C3a generation”. Besides, in assay [2] (n=19, average), the “C4a in liver transplant patient plasma after 60 min at rt” value amounted to 16.9 µg/mL and the “C4a in liver transplant patient plasma at 0 time” value stood at 4.02 µg/mL. The “C4a level in liver transplant patient plasma at 0 time” value in assay [2] (n=19, average (experiment 3B)) turned out to be 4020 ± 6100 ng/mL.

As for `CS(=O)(=O)O.CS(=O)(=O)O.N=C(N)Nc1ccc(C(=O)Oc2ccc3cc(C(=N)N)ccc3c2)cc1` [Futhan, 6-amidino-2-naphthyl-p-guanidinobenzoate dimethanesulfonate], in the assay with Hageman factor, the “effective inhibitory level toward Hageman factor” value is “sub-micromolar level”. In assay [1] (0.01 mg/ml Futhan, dimethanesulfonate), the “C4 conversion / C-activation versus time in normal EDTA plasma” value is recorded as “measurable reduction in C4 conversion; also recorded: effective in protecting normal plasma from C-activation”. Besides, the “C4 cleavage in normal EDTA plasma” value in assay [1] (0.10 mg/ml Futhan, over a 24-hour period) is recorded as “virtually eliminated C4 cleavage”. Also, the “C3a levels in EDTA samples” value in assay [1] (0.2 mg/ml Futhan, compared with lower Futhan levels (experiment 1)) is recorded as “somewhat higher”. For the same molecule, in assay [1] (Futhan added (experiment 1)), the “activation of C4 in normal EDTA plasma” value is reported as “abolished”. In addition, in assay [1] (Table II, line IV), the “activity of all pathways with Futhan (Futhan/EDTA)” value is recorded as “NO IN VITRO C-ACTIVATION”. In addition, in assay [1] (setting [8]), the “reduction in C3a levels by addition of Futhan” value is recorded as “no significant reduction” and the “reduction in C4a levels by addition of Futhan” value is reported as “only marginal reduction”. Moreover, the MASP activity result in assay [1] is recorded as “inhibits MASP”. The “C3a and C4a generation in EDTA plasma from normal donors” value in assay [1] (n=11, 0.1 mg/ml Futhan, rt, one hour (experiment 3A)) is “effectively inhibited”. The “C4 conversion in blood” value in assay [1] (normal donor, dimethanesulfonate) is recorded as “fully effective; also recorded: fully blocked in vitro C-activation”. Besides, in assay [1] (normal donor), the “C3a generation in whole blood” value is “effective inhibitor”. The “generation of C3a or C4a in stored samples” value in assay [1] (stored 24 hr on ice or frozen and thawed) was “minimal generation of either C3a or C4a”. Moreover, in assay [1] (with or without EDTA, up to one hour at room temperature (FIG. 2)), the “stabilizing C3 and C4 in normal whole blood” value is “effective in stabilizing C3 and C4”. The “time-dependent C3a and C4a elevation in patient EDTA plasma” value in assay [2] (60 min at room temperature (experiment 3B)) is given as “effectively prevented”. Further, the “levels of C3a and C4a after 1 hr of incubation at rt” value in assay [2] (nineteen patients, 0.1 mg/ml Futhan and 0.5 mg/ml EDTA) was “unchanged in most samples”. Also, the “C4 converting activity in EDTA plasma” value in assay [2] (transplant patients) is reported as “fully inhibitable”. The “effective inhibitory level toward Factor Xa” value in the assay with Factor Xa is given as “sub-micromolar level”.

As to `C[C@H]1C[C@@H]2[C@H]([C@@H](O)C[C@@]3(C)[C@H]2CC[C@]3(O)C(=O)CO)[C@@]2(C)C=CC(=O)C=C12` [methylprednisolone], the “course of the rejection episode after treatment” value in assay [3] is on record as “resolved rapidly”.
